Measured values taken from patent US20100144888A1, “PESTICIDAL METHODS AND COMPOSITIONS FOR MODULATING GABA RECEPTORS” (ECOSMART TECHNOLOGIES, INC., priority 2008, published 2010).

Columns and labels:
[1] = molecular target: T1, House Fly GABA receptor (Musca domestica, UniProt Q75NA5); test: [3H]-TBOB binding assay, house fly GABA receptor; conditions: for modulation of the house fly GABA receptor: based on [3H]-TBOB-house fly GABA receptor binding assay, FIGS. 1-7; for effect on [3H]-TBOB binding activity: house fly GABA receptor, 4 nM [3H]-TBOB
T1 sequence (Q75NA5 30-576): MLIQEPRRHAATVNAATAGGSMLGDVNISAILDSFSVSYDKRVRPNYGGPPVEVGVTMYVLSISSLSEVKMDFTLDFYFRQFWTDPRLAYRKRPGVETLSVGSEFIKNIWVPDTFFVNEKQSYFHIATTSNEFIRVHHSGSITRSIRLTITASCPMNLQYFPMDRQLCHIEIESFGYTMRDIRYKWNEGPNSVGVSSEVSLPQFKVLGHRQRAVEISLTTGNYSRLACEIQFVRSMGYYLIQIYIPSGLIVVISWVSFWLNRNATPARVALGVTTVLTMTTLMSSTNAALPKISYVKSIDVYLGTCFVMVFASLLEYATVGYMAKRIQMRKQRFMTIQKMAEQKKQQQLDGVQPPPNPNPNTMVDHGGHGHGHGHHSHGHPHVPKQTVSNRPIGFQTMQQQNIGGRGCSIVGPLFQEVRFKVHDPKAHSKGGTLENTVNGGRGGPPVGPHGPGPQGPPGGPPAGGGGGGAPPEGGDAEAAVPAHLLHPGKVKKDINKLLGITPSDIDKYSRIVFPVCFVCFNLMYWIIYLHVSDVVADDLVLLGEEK
Method: [^3H]-TBOB Assay. In this study, five monoterpenoids (Pulegone, Thymol, Alpha-terpineol, Linalool and Carvacrol) were investigated to determine their modulation effects on [^3H]TBOB (t-butylbicycloorthobenzoate) binding to housefly GABA (Gamma-aminobutyric acid) receptors.
House fly heads (200) were homogenized in 10 mM tris-HCL buffer (pH 7.5) containing 0.25M sucrose (buffer A) with a glass homogenizer. The homogenate was centrifuged at 1,000×g for 5 minutes. The supernatant was filtered by four layers cheesecloth and centrifuged at 25,000×g for 30 minutes. The supernatant was discarded, and the pellet was homogenized and resuspended in buffer A for 30 minutes. The suspension was centrifuged at 25,000×g for 30 minutes. The final pellet was suspended in 10 mM phosphate buffer (pH 7.5) containing 300 mM NaCL (buffer B) and used directly for the assays.
(§1) 100 μl membrane was incubated for 70 minutes at room temperature with 4 nM [^3H]-TBOB, different amounts of candidate inhibitor and buffer B. The total assay buffer volume was 500 μl. After incubation, samples were filtered by glass fiber filter papers and washed with 5 ml ice-cold buffer B 3 times. Radioactivity was measured by liquid scintillation counter. Specific binding was calculated as the difference between the total ^3H bound and nonspecific ^3H bound with 100 μM picrotoxin.

[2] = tested on: insect GABA receptor (American cockroach CNS membrane microsacs); test: GABA-activated 36Cl- uptake assay in membrane microsacs; assay type: biochemical, Periplaneta americana; conditions: for modulation of Cl- uptake: American cockroach membrane microsacs, 1 μM GABA, FIGS. 8-15; for type of modulation of the insect GABA receptor: conclusion from 36Cl- uptake results
Method: Cockroach CNS Membrane Microsacs Preparation: Thoracic and abdominal ganglia were removed from 30 American cockroaches and homogenized in 8.0 ml ice-cold buffer of the following composition (in millimoles per liter): NaBr, 145; KBr, 5.0; MgSO4, 1.0; Ca(NO3)2, 1.0; D-glucose, 10.0; N-2-hydroxyethylpiperazine-N′-2-ethanesulphonic acid (HEPES), 10.0 (adjusted to pH 7.5). The homogenate was centrifuged in 1.0 ml aliquots at 10,000×g for 20 min, and the pellets were re-suspended in buffer, re-centrifuged and finally re-suspended in buffer for assaying GABA-activated ^36Cl— uptake.
Cockroach GABA-activated ^36Cl— Uptake: Aliquots (200 μl) of this microsac preparation were incubated at 30° C. for 3 min after which 150 μl of a solution of ^36Cl— (0.2 μCi ml-l; specific activity 580 μCi mmol^−1) containing 1 μM GABA was added. Candidate monoterpenoids were incubated with the tissue sample for 3 min before addition of the solution containing ^36Cl— and GABA. To stop the influx of 36CL—, 2.0 m1 of ice cold buffer was added (after 10 s) and the solution was rapidly filtered over a glass-fiber filter (Whatman GF/C) followed by a 10-ml wash with ice-cold buffer. Filters, which then contained the microsacs, are placed into scintillation vials, and the scintillation cocktail was added. The vials were counted in the liquid scintillation counter, and the amount of ^36Cl— taken up into the microsacs was measured and calculated on the molar basis.

[3] = molecular target: Mouse GABAa receptor; test: [3H]-TBOB binding assay, mouse GABAa receptor; conditions: means±S.D., n=3, FIG. 1, read-out: IC50, inhibition of [3H]-TBOB binding
Method: as §1

Row | SMILES | modulation of the house fly GABA receptor [1] | effect on [3H]-TBOB binding activity [1] | modulation of Cl- uptake [2] | type of modulation of the insect GABA receptor [2] | IC50 [3] [µM]
1 | CC(C)=C1CC[C@@H](C)CC1=O [Pulegone] | modulated the house fly GABA receptor | potentiated the binding | modulate Cl— uptake | – | –
2 | Cc1ccc(C(C)C)c(O)c1 [thymol] | modulated the house fly GABA receptor | potentiated the binding | modulate Cl— uptake | positive modulators | –
3 | CC1=CCC(C(C)(C)O)CC1 (stereo not drawn) [alpha-terpineol] | modulated the house fly GABA receptor | lesser effects | – | – | –
4 | ClC1=C(Cl)[C@]2(Cl)[C@@H]3[C@@H]4C[C@@H]([C@H]5O[C@@H]45)[C@@H]3[C@@]1(Cl)C2(Cl)Cl [Dieldrin] | – | – | – | – | 3.78 ± 0.45
5 | C=CC(C)(O)CCC=C(C)C (stereo not shown) [linalool] | modulated the house fly GABA receptor | potentiated the binding | – | – | –
6 | Cc1ccc(C(C)C)cc1O [carvacrol] | modulated the house fly GABA receptor | potentiated the binding | modulate Cl— uptake | positive modulators | –
